These results are taken from EP0237866A1, “Selective fungicidal use of asymmetric 2-pyridyl phosphoric acid esters” (priority 1986, dated 1987).

The subject of one test is Venturia inaequalis. Briefly: Venturia test (apple) / protective. It is filed as in vivo. The settings on record: apple plants, protective spray, 5 ppm active compound, evaluated 12 days after inoculation. The text has this:
Venturia-Test (Apfel) / protektiv
Lösungsmittel: 4,7 Gewichtsteile Aceton Emulgator: 0,3 Gewichtsteile Alkylarylpolyglykolether
(§1) Zur Herstellung einer zweckmäßigen Wirkstoffzubereitung vermischt man 1 Gewichtsteil Wirkstoff mit den angegebenen Mengen Lösungsmittel und Emulgator und verdünnt das Konzentrat mit Wasser auf die gewünschte Konzentration.
Zur Prüfung auf protektive Wirksamkeit bespritzt man junge Pflanzen mit der Wirkstoffzubereitung bis zur Tropfnässe. Nach Antrocknen des Spritzbelages werden die Pflanzen mit einer wäßrigen Konidiensuspension des Apfelschorferregers (Venturia inaequalis) inokuliert und verbleiben dann 1 Tag bei 20°C und 100 X relativer Luftfeuchtigkeit in einer Inkubationskabine.
Die Pflanzen werden dann im Gewächshaus bei 20 °C und einer relativen Luftfeuchtigkeit von ca. 70 % aufgestellt.
12 Tage nach der Inokulation erfolgt die Auswertung.

For another test, the target named is T1, Cutinase (Fusarium vanettenii, UniProt P00590).
T1 construct: Das Enzym Cutinase wird aus Kulturfiltrat von Fusarium solani f.sp.pisi nach Standardmethoden gereinigt; endogenous in cells; host or cells: Culture filtrate of Fusarium solani f.sp. pisi (enzyme secreted by the fungus and purified)
T1 sequence (P00590 32-230): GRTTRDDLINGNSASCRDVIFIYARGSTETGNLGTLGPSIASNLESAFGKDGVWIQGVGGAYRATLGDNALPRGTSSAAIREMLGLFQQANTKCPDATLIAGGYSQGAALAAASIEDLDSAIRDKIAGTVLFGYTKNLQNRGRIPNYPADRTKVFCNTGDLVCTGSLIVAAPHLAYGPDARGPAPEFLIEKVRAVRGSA
Briefly: Cutinase inhibitor test. It is filed as biochemical, Fusarium solani f.sp.pisi. The settings on record: p-Nitrophenylbutyrat as substrate, 30 min incubation at 30°C, phosphate buffer 0,1 M pH 8 + 0,3% Triton X-100; read-out: I50. Here is the method:
Das Enzym Cutinase wird aus Kulturfiltrat von Fusarium solani f.sp.pisi nach Standardmethoden gereinigt und photometrisch mit p-Nitrophenylbutyrat als Substrat getestet (P.E. Kolattukudy, K.E. Espelie, C.L. Soliday (1981), Meth. Enzymol. 71, 652).
Die Inhibitor-Wirkung wird einer beschriebenen Methode folgend bestimmt (W. Köller, C.R. Allan, P.E. Kolattukudy (1982), Phytopathoiopy 72, 1425): Eine geeignete Menge Enzym wird zusammen mit dem Wirkstoff in gewünschter Konzentration in 1 ml Phosphatpuffer (0,1 M; pH 8) + 0,3% (w/v) Triton X-100 bei 30°C inkubiert. Nach 30 Minuten Inkubation wird die enzymatische Restaktivität bestimmt. Anhand einer Dosis-Wirkungs-Beziehung wird der I(50)-Wert (= diejenige Wirkstoff-Konzentration, die zu einer Inhibierung von 50 % führt) ermittelt.

For test [1], the system named is Erysiphe graminis f.sp.hordei. Briefly: Erysiphe test (barley) / protective. The settings on record: evaluated 7 days after inoculation. The format is in vivo.
Excerpt: Erysiphe-Test (Gerste) / protektiv
Lösungsmittel: 100 Gewichtsteile Dimethylformamid Emulgator: 0,25 Gewichtsteile Alkylarylpolyglykolether
as §1
Zur Prüfung auf protektive Wirksamkeit besprüht man junge Pflanzen mit der Wirkstoffzubereitung taufeucht. Nach Antrocknen des Spritzbelages werden die Pflanzen mit Sporen von Erysiphe graminis f.sp.hordei bestäubt.
Die Pflanzen werden in einem Gewächshaus bei einer Temperatur von ca. 20°C und einer relativen Luftfeuchtigkeit von ca. 80 % aufgestellt, um die Entwicklung von Mehltaupusteln zu begünstigen.
7 Tage nach der Inokulation erfolgt die Auswertung.

[2] abbreviates: protective spray, 0,0025 Gew.-% in the spray liquor.

In the case of `CCOP(=O)(OCC)Oc1nc(Cl)c(Cl)cc1Cl` [A, 0,0-Diethyl-0-(3,5,6-trichlor-2-pyridyl)-phosphorsäureester, reference compound], in the test on Venturia inaequalis, the “Befall in % bei einer Wirkstoffkonzentration von 5 ppm” value was 74%. Besides, the IC50 on Cutinase was 190 nM. For the same molecule, the “Krankheits-befall in % der unbe-handelten Kontrolle” value in test [1] (protective spray, 0,005 Gew.-% in the spray liquor) was 58,7 % der unbe-handelten Kontrolle.

Turning to `CCCCOP(=O)(OCC)Oc1nc(Cl)c(Cl)cc1Cl` (centres unmarked) [Beispiel 1, O-n-Butyl-O-ethyl-O-(3,5,6-trichlor-2-pyridyl)-phosphorsiureester], the “Befall in % bei einer Wirkstoffkonzentration von 5 ppm” value with Venturia inaequalis is listed as 27%.

Turning to `CCCCCCOP(=O)(OCC)Oc1nc(Cl)c(Cl)cc1Cl` (centres unmarked) [Beispiel 2], the “Befall in % bei einer Wirkstoffkonzentration von 5 ppm” value in the test on Venturia inaequalis came out at 11%.

Regarding `CCCCCCCCOP(=O)(OCC)Oc1nc(Cl)c(Cl)cc1Cl` (centres unmarked) [Beispiel 3], the “Befall in % bei einer Wirkstoffkonzentration von 5 ppm” value in the test on Venturia inaequalis was 19%.

Turning to `CCCCOP(=O)(OC)Oc1nc(Cl)c(Cl)cc1Cl` (centres unmarked) [Beispiel 4], the “Befall in % bei einer Wirkstoffkonzentration von 5 ppm” value in the test on Venturia inaequalis is on record as 5%. Moreover, on Cutinase, the IC50 was found to be 36 nM.

As for `CCCCCCOP(=O)(OC)Oc1nc(Cl)c(Cl)cc1Cl` (centres unmarked) [Beispiel 5], the “Befall in % bei einer Wirkstoffkonzentration von 5 ppm” value with Venturia inaequalis is listed as 3%.

In the case of `CCCCCCOP(=O)(OC)Oc1cccc(Cl)n1` (centres unmarked) [Beispiel 7], the “Krankheits-befall in % der unbe-handelten Kontrolle” value in test [1] (setting [2]) is on record as 37,5 % der unbe-handelten Kontrolle.

Regarding `CCCCOP(=O)(OC)Oc1cccc(Cl)n1` (centres unmarked) [Beispiel 8], the “Krankheits-befall in % der unbe-handelten Kontrolle” value in test [1] (setting [2]) was 37,5 % der unbe-handelten Kontrolle.

On to `CCCCCCOP(=O)(OC)Oc1ncc(Cl)cc1Cl` (centres unmarked) [Beispiel 9], for which the “Krankheits-befall in % der unbe-handelten Kontrolle” value in test [1] (setting [2]) was 25,0 % der unbe-handelten Kontrolle.

Consider `CCCCOP(=O)(OC)Oc1ncc(Cl)cc1Cl` (centres unmarked) [Beispiel 10], for which the “Krankheits-befall in % der unbe-handelten Kontrolle” value in test [1] (setting [2]) is recorded as 12,5 % der unbe-handelten Kontrolle.

`CCCOP(=O)(OC)Oc1nc(Cl)c(Cl)cc1Cl` (centres unmarked) [Beispiel 12]: the IC50 on Cutinase turned out to be 39 nM.
